Experimental data reported in patent publication US5441941A, “1,2-dihydroellipticines with activity against CNS specific cancer” (The United States of America as represented by the …, priority 1993, dated 1995).

How the values were obtained:
[1] = test system: CAKI-1; experiment: NCI in vitro screen, SRB percent growth, Renal Cancer
[2] = test system: Human tumor cell lines; experiment: NCI in vitro screen, overall result; conditions: Tables I and II
[3] = test system: TK-10; experiment: NCI in vitro screen, SRB percent growth, Renal Cancer
[4] = test system: SF-268; experiment: NCI in vitro screen, SRB percent growth, CNS Cancer
[5] = test system: HL-60 (TB); experiment: NCI in vitro screen, SRB percent growth, Leukemia
[6] = test system: M14; experiment: NCI in vitro screen, SRB percent growth, Melanoma
[7] = test system: DLD-1; experiment: cells; conditions: Homo sapiens
[8] = test system: HT29; experiment: NCI in vitro screen, SRB percent growth, Colon Cancer
[9] = test system: COLO 205; experiment: as above
[10] = test system: K-562; experiment: NCI in vitro screen, SRB percent growth, Leukemia
[11] = test system: A549/ATCC; experiment: NCI in vitro screen, SRB percent growth, Non-Small Cell Lung Cancer
[12] = test system: HCT-15; experiment: NCI in vitro screen, SRB percent growth, Colon Cancer
[13] = test system: XF 498; experiment: NCI in vitro screen, SRB percent growth, CNS Cancer
[14] = test system: SK-OV-3; experiment: NCI in vitro screen, SRB percent growth, Ovarian Cancer
[15] = test system: KM12; experiment: NCI in vitro screen, SRB percent growth, Colon Cancer
[16] = test system: M19-MEL; experiment: NCI in vitro screen, SRB percent growth, Melanoma
[17] = test system: SNB-78; experiment: NCI in vitro screen, SRB percent growth, CNS Cancer
[18] = Log10 Concentration -4.0, 100 µM
[19] = Log10 Concentration -7.0, 0.1 µM
[20] = DLD-1, read-out: Percent Growth

Structure (SMILES): COc1ccc2[nH]c3c(C)c4c(c(C)c3c2c1)CN(C)C=C4 [Formula VII]
- Percent Growth [1, 18]: -11%
- Percent Growth ([1]; Log10 Concentration -5.0): 38%
- Percent Growth ([1]; Log10 Concentration -6.0, 1 µM): 83%
- Percent Growth [1, 19]: 107%
- Percent Growth ([1]; Log10 Concentration -8.0): 110%
- TGI ([1]; PG=0): 60.7 µM
- GI50 ([1]; PG=+50): 5.5 µM
- CC50 ([1]; read-out: LC-50, PG=-50): > 100 µM
- effect against many kinds of cancer [2]: effective against many kinds of cancer
- Percent Growth [3, 18]: -6%
- Percent Growth ([3]; Log10 Concentration -5.0): 64%
- Percent Growth ([3]; Log10 Concentration -6.0, 1 µM): 114%
- Percent Growth [3, 19]: 127%
- Percent Growth ([3]; Log10 Concentration -8.0): 120%
- TGI ([3]; PG=0): 82.7 µM
- GI50 ([3]; PG=+50): 15.9 µM
- CC50 ([3]; read-out: LC-50, PG=-50): > 100 µM
- Percent Growth [4, 18]: -55%
- Percent Growth ([4]; Log10 Concentration -5.0): -45%
- Percent Growth ([4]; Log10 Concentration -6.0, 1 µM): 2%
- Percent Growth [4, 19]: 76%
- Percent Growth ([4]; Log10 Concentration -8.0): 91%
- TGI ([4]; PG=0): 1.1 µM
- GI50 ([4]; PG=+50): 0.223 µM
- CC50 ([4]; read-out: LC-50, PG=-50): 35 µM
- Percent Growth [5, 18]: -43%
- Percent Growth ([5]; Log10 Concentration -5.0): 93%
- Percent Growth ([5]; Log10 Concentration -6.0, 1 µM): 121%
- Percent Growth [5, 19]: 123%
- Percent Growth ([5]; Log10 Concentration -8.0): 118%
- TGI ([5]; PG=0): 48.5 µM
- GI50 ([5]; PG=+50): 20.8 µM
- CC50 ([5]; read-out: LC-50, PG=-50): > 10000 µM
- Percent Growth [6, 18]: -98%
- Percent Growth ([6]; Log10 Concentration -5.0): 40%
- Percent Growth ([6]; Log10 Concentration -6.0, 1 µM): 103%
- Percent Growth [6, 19]: 111%
- Percent Growth ([6]; Log10 Concentration -8.0): 99%
- TGI ([6]; PG=0): 19.6 µM
- GI50 ([6]; PG=+50): 7.01 µM
- CC50 ([6]; read-out: LC-50, PG=-50): 45.2 µM
- GI50 ([7]; DLD-1): 3.23 µM
- CC50 ([7]; DLD-1, read-out: LC-50): > 100 µM
- activity at 0.01 µM [7, 20]: 103%
- activity at 0.1 µM [7, 20]: 99%
- activity at 1 µM [7, 20]: 75%
- activity at 10 µM [7, 20]: 26%
- activity at 100 µM [7, 20]: -15%
- IC (TGI) ([7]; DLD-1, read-out: TGI): 42.3 µM
- Percent Growth [8, 18]: -73%
- Percent Growth ([8]; Log10 Concentration -5.0): 24%
- Percent Growth ([8]; Log10 Concentration -6.0, 1 µM): 88%
- Percent Growth [8, 19]: 112%
- Percent Growth ([8]; Log10 Concentration -8.0): 97%
- TGI ([8]; PG=0): 17.8 µM
- GI50 ([8]; PG=+50): 3.92 µM
- CC50 ([8]; read-out: LC-50, PG=-50): 58 µM
- Percent Growth [9, 18]: -72%
- Percent Growth [9, 19]: 91%
- Percent Growth ([9]; Log10 Concentration -8.0): 99%
- TGI ([9]; PG=0): 5.6 µM
- GI50 ([9]; PG=+50): 1.42 µM
- CC50 ([9]; read-out: LC-50, PG=-50): 37.1 µM
- Percent Growth [10, 18]: -24%
- Percent Growth ([10]; Log10 Concentration -5.0): 11%
- Percent Growth ([10]; Log10 Concentration -6.0, 1 µM): 75%
- Percent Growth [10, 19]: 84%
- TGI ([10]; PG=0): 20.4 µM
- GI50 ([10]; PG=+50): 2.48 µM
- CC50 ([10]; read-out: LC-50, PG=-50): > 100 µM
- Percent Growth [11, 18]: -26%
- Percent Growth ([11]; Log10 Concentration -5.0): 10%
- Percent Growth ([11]; Log10 Concentration -6.0, 1 µM): 51%
- Percent Growth [11, 19]: 87%
- Percent Growth ([11]; Log10 Concentration -8.0): 102%
- TGI ([11]; PG=0): 19.2 µM
- GI50 ([11]; PG=+50): 1.05 µM
- CC50 ([11]; read-out: LC-50, PG=-50): > 100 µM
- Percent Growth [12, 18]: 16%
- Percent Growth ([12]; Log10 Concentration -5.0): 96%
- Percent Growth ([12]; Log10 Concentration -6.0, 1 µM): 111%
- Percent Growth [12, 19]: 114%
- Percent Growth ([12]; Log10 Concentration -8.0): 118%
- TGI ([12]; PG=0): > 100 µM
- GI50 ([12]; PG=+50): 37.7 µM
- CC50 ([12]; read-out: LC-50, PG=-50): > 100 µM
- Percent Growth [13, 18]: -60%
- Percent Growth ([13]; Log10 Concentration -5.0): -25%
- Percent Growth ([13]; Log10 Concentration -6.0, 1 µM): 81%
- Percent Growth [13, 19]: 140%
- Percent Growth ([13]; Log10 Concentration -8.0): 174%
- TGI ([13]; PG=0): 5.82 µM
- GI50 ([13]; PG=+50): 1.97 µM
- CC50 ([13]; read-out: LC-50, PG=-50): 52.7 µM
- Percent Growth [14, 18]: -23%
- Percent Growth ([14]; Log10 Concentration -5.0): 148%
- Percent Growth ([14]; Log10 Concentration -6.0, 1 µM): 167%
- Percent Growth [14, 19]: 159%
- Percent Growth ([14]; Log10 Concentration -8.0): 192%
- TGI ([14]; PG=0): 73.4 µM
- GI50 ([14]; PG=+50): 73.4 µM
- CC50 ([14]; read-out: LC-50, PG=-50): > 100 µM
- Percent Growth [15, 18]: -86%
- Percent Growth ([15]; Log10 Concentration -6.0, 1 µM): 28%
- Percent Growth [15, 19]: 59%
- Percent Growth ([15]; Log10 Concentration -8.0): 78%
- TGI ([15]; PG=0): 2.32 µM
- GI50 ([15]; PG=+50): 0.194 µM
- CC50 ([15]; read-out: LC-50, PG=-50): 10.6 µM
- Percent Growth [16, 18]: -62%
- Percent Growth ([16]; Log10 Concentration -5.0): -36%
- Percent Growth ([16]; Log10 Concentration -6.0, 1 µM): 48%
- Percent Growth [16, 19]: 95%
- Percent Growth ([16]; Log10 Concentration -8.0): 117%
- TGI ([16]; PG=0): 3.7 µM
- GI50 ([16]; PG=+50): 0.899 µM
- CC50 ([16]; read-out: LC-50, PG=-50): 34.7 µM
- Percent Growth [17, 18]: -26%
- Percent Growth ([17]; Log10 Concentration -5.0): -18%
- Percent Growth ([17]; Log10 Concentration -6.0, 1 µM): 41%
- Percent Growth [17, 19]: 98%
- Percent Growth ([17]; Log10 Concentration -8.0): 98%
- TGI ([17]; PG=0): 4.9 µM
- GI50 ([17]; PG=+50): 0.683 µM
- CC50 ([17]; read-out: LC-50, PG=-50): > 100 µM
